Data as given in paper PMC7044277 (Nature Communications, 2020).
“And” between values parts separate entries of the source, which are not always exact repeats. Identical values can stand only once.

Experiments:
Assay type in all cases: cell-based
Design in all cases: GPCRome screening signal at PTGIR / GPCRome screening signal at PTH1R / GPCRome screening signal at PTH2R / GPCRome screening signal at QRFP / GPCRome screening signal at RXFP2 / GPCRome screening signal at RXFP3 / GPCRome screening signal at RXFP4 / GPCRome screening signal at S1PR2 / GPCRome screening signal at S1PR3 / GPCRome screening signal at S1PR4 / GPCRome screening signal at S1PR5 / GPCRome screening signal at SCTR / GPCRome screening signal at SSTR2 / GPCRome screening signal at SSSTR / GPCRome screening signal at SSTR4 / GPCRome screening signal at SSTR5 / GPCRome screening signal at SUCNR1 / GPCRome screening signal at TA1 / GPCRome screening signal at TAAR2 / GPCRome screening signal at TAAR5 / GPCRome screening signal at TAAR6 / GPCRome screening signal at TAAR8 / GPCRome screening signal at TACR1 / GPCRome screening signal at TACR2 / GPCRome screening signal at TACR3 / GPCRome screening signal at TBXA2R / GPCRome screening signal at TSHR / GPCRome screening signal at UTS2R / GPCRome screening signal at VIPR2 / GPCRome screening signal at GPR68 no V2 Tail / GPCRome screening signal at GRM2 / GPCRome screening signal at GRM3: reference not given here
320 non-olfactory GPCRs [1] = molecular target: T1, 320 non-olfactory GPCRs (Homo sapiens, UniProt P43119); settings: receptor PTGIR
T1 construct: expressed in transfected cells; host or cells: HTLA cells
T1 sequence (P43119 whole entry): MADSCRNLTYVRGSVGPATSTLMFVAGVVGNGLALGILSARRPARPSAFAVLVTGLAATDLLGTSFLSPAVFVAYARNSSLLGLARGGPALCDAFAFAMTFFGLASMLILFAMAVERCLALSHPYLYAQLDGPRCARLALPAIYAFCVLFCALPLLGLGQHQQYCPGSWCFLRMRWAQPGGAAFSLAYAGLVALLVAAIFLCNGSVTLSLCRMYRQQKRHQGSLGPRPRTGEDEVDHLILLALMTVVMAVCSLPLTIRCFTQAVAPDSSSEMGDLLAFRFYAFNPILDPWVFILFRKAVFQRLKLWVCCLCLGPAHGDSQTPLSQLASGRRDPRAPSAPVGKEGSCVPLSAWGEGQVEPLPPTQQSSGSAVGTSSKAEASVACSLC

320 non-olfactory GPCRs [2] = molecular target: 320 non-olfactory GPCRs (Homo sapiens, UniProt P47872); settings: receptor SCTR
Sequence of 320 non-olfactory GPCRs (Homo sapiens, UniProt P47872) (P47872 23-440): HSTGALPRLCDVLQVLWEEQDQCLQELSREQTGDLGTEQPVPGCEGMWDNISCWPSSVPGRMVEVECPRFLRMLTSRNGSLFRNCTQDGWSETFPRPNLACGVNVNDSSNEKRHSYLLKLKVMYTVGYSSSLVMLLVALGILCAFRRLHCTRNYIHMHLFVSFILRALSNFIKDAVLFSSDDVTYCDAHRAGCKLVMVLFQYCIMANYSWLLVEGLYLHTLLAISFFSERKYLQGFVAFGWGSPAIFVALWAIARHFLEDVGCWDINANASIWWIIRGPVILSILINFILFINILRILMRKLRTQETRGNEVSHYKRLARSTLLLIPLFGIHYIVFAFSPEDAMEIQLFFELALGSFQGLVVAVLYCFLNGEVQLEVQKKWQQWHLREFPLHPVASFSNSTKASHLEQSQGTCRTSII

320 non-olfactory GPCRs [3] = molecular target: T2, 320 non-olfactory GPCRs (Homo sapiens, UniProt Q14832); settings: receptor GRM3
T2 construct: expressed in transfected cells; host or cells: HTLA cells
T2 sequence (Q14832 23-879): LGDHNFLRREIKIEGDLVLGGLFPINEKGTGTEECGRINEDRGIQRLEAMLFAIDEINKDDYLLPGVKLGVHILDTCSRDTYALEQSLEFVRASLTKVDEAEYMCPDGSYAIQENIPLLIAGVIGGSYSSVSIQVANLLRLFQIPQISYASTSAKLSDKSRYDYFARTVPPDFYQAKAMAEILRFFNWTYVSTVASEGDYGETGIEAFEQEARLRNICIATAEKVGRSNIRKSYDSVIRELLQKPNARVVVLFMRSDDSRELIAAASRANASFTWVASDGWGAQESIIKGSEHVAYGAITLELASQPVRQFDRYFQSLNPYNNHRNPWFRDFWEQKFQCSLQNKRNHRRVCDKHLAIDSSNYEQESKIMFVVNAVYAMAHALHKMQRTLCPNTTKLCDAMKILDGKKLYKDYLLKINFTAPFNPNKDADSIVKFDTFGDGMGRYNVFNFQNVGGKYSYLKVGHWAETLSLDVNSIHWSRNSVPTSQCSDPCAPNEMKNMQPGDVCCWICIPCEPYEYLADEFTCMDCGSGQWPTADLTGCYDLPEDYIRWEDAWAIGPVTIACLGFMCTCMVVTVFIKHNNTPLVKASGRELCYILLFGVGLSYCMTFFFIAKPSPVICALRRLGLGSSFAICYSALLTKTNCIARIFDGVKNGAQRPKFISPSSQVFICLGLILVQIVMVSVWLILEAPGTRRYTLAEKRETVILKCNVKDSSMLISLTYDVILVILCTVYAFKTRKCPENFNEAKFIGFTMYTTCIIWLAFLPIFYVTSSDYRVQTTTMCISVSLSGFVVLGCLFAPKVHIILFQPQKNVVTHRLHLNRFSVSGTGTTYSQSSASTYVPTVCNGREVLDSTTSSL

320 non-olfactory GPCRs [4] = molecular target: T3, 320 non-olfactory GPCRs (Homo sapiens, UniProt Q9UKP6); settings: receptor UTS2R
T3 construct: expressed in transfected cells; host or cells: HTLA cells
T3 sequence (Q9UKP6 whole entry): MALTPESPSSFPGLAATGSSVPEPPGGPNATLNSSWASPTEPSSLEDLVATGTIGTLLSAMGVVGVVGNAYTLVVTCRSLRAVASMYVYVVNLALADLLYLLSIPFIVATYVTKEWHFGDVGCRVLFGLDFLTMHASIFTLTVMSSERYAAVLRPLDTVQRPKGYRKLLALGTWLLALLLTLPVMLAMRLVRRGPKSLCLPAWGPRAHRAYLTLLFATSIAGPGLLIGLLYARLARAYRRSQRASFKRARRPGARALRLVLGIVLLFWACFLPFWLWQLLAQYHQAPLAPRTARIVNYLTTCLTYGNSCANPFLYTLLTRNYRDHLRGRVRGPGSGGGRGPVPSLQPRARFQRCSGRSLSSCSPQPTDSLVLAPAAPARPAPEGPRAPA

[5] = Fig_5f, single replicate values
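Throughout, for GPCRome agonism screen response: fold over basal response of each receptor without drug.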

SMILES	GPCRome agonism screen response (320 non-olfactory GPCRs [1]; replicate values, Fig_4g)	GPCRome agonism screen response (320 non-olfactory GPCRs [2]; replicate values, Fig_4g)	GPCRome agonism screen response (320 non-olfactory GPCRs [3]; replicate values, Fig_4g)	GPCRome agonism screen response (320 non-olfactory GPCRs [4]; replicate values, Fig_4g)	GPCRome screening signal at PTGIR (320 non-olfactory GPCRs [1]; [5])	GPCRome screening signal at SCTR (320 non-olfactory GPCRs [2]; [5])	GPCRome screening signal at GRM3 (320 non-olfactory GPCRs [3]; [5])	GPCRome screening signal at UTS2R (320 non-olfactory GPCRs [4]; [5])
CCOc1cccc2cc(C(C)NCC3(O)CCCCC3)oc12 (centres unmarked) [O4LE6]	1.654 and 0.8806 and 0.8629 and 1.301	0.9841 and 0.1649 and 1.315 and 1.208	0.5635 and 0.5272 and 0.9256 and 1.931	1.786 and 2.312 and 1.032	–	–	–	–
CCOc1ccccc1CCC(C)NCC1(O)CCCCC1.Cl (racemic) [Fig_5f]	–	–	–	–	0.4707 and 0.7235 and 1.819 and 1.564	1.0412 and 0.8528 and 0.88 and 1.015	0.4086 and 1.387 and 0.6216 and 1.325	1.327 and 1.1644 and 2.664 and 0.5292
